Measured values from paper PMC12073402, “A Selective MAP3K1 Inhibitor Facilitates Discovery of NPM1 as a Member of the Network” (Molecules, 2025).

Tests used:
Test in all cases: KiNativ kinome profiling in PANC-1 lysate
Assay type in all cases: binding
PKR = target: T1, PKR (Homo sapiens, UniProt P19525)
T1 construct: endogenous in cells; host or cells: PANC-1 cell lysate
Method in brief: (§1)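 PANC-1 lysates were incubated with 5 μM inhibitor or DMSO, then labeled with a desthiobiotin-ATP acyl-phosphate probe that biotinylates conserved kinase lysines. Tryptic peptides were streptavidin-enriched and quantified by LC-MS/MS, reported as % change in MS signal from duplicate treated and duplicate control samples.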

NEK9 = target: T2, NEK9 (Homo sapiens, UniProt Q8TD19)
T2 construct: endogenous in cells; host or cells: PANC-1 cell lysate
T2 sequence (Q8TD19 1-979): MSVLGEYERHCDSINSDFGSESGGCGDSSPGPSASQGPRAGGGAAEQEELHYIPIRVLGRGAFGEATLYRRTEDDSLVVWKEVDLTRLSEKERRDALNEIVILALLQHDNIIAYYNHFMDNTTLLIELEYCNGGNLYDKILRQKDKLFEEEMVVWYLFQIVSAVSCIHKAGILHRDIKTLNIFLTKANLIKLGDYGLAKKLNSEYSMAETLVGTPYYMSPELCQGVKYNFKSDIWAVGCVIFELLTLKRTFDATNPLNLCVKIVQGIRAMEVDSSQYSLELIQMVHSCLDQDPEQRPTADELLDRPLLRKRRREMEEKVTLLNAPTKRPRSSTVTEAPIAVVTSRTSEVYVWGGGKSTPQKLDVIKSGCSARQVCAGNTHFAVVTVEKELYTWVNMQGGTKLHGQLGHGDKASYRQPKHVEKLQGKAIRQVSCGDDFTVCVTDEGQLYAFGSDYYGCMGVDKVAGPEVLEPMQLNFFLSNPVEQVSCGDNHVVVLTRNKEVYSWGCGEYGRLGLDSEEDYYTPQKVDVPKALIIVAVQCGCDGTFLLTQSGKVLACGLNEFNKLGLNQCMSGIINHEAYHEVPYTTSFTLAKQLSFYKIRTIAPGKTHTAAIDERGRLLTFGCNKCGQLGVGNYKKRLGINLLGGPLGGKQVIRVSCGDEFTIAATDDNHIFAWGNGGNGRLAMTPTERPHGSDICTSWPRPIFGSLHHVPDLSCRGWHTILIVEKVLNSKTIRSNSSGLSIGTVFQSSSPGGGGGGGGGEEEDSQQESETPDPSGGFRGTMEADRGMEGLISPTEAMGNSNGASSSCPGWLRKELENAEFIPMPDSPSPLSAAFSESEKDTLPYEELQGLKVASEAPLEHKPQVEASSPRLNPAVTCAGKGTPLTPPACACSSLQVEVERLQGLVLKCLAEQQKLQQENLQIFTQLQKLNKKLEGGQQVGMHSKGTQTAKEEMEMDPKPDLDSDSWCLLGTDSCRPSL
Method in brief: as §1

PKCd = target: T3, PKCd (Homo sapiens, UniProt Q05655)
T3 construct: endogenous in cells; host or cells: PANC-1 cell lysate
T3 sequence (Q05655 whole entry): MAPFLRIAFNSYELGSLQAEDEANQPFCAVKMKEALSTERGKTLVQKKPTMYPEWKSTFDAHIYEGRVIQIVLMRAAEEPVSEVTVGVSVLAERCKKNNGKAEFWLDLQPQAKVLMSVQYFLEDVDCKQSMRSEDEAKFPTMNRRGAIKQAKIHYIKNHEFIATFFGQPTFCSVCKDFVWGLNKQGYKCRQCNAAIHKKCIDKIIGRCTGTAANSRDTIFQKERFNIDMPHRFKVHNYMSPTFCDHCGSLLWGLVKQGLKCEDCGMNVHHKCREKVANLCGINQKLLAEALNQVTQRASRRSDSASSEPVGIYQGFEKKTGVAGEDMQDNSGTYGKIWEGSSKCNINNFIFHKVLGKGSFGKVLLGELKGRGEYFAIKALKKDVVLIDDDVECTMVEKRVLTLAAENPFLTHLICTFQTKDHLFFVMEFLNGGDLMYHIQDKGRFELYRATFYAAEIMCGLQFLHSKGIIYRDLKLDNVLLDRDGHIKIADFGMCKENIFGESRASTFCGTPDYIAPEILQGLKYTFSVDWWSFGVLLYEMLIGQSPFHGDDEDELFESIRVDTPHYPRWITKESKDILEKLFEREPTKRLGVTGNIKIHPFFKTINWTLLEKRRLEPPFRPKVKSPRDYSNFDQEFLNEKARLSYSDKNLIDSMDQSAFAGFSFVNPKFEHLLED
Method in brief: as §1

KSR1, KSR2 = conditions: 5 µM; ATP Loop; SKNVFYDNGK
Method in brief: as §1

DRAK1, DRAK2 = conditions: 5 µM; ATP Loop; GKFAVVR
Method in brief: as §1

PKN2 = target: T4, PKN2 (Homo sapiens, UniProt Q16513); conditions: Lys2
T4 construct: endogenous in cells; host or cells: PANC-1 cell lysate
Method in brief: as §1

PAN3 = target: T5, PAN3 (Homo sapiens, UniProt Q58A45); conditions: ATP
T5 construct: endogenous in cells; host or cells: PANC-1 cell lysate
T5 sequence (Q58A45 whole entry): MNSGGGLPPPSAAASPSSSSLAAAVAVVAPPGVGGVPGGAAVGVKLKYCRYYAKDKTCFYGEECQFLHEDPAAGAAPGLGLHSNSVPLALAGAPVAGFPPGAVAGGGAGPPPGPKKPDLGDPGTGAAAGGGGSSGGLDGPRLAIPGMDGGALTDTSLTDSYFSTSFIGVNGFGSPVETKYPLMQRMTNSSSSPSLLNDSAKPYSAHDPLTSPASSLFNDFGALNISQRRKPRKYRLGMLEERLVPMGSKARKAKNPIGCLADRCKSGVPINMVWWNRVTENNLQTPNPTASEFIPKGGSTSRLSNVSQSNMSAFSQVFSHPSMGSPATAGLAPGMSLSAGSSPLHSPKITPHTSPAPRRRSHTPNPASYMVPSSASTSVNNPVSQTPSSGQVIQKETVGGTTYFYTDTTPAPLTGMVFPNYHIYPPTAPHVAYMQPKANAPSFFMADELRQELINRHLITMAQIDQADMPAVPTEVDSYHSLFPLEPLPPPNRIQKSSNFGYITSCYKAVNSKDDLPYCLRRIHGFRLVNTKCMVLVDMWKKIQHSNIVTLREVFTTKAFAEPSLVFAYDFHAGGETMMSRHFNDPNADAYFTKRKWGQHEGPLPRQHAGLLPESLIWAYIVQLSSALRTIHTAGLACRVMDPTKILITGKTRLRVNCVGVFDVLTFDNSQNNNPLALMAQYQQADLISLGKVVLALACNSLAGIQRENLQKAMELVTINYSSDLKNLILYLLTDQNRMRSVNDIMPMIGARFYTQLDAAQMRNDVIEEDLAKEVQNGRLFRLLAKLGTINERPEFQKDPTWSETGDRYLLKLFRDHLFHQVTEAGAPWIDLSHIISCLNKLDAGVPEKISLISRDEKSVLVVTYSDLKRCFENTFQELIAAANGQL
Method in brief: as §1

MLKL = target: T6, MLKL (Homo sapiens, UniProt Q8NB16); conditions: Lys1
T6 construct: endogenous in cells; host or cells: PANC-1
T6 sequence (Q8NB16 whole entry): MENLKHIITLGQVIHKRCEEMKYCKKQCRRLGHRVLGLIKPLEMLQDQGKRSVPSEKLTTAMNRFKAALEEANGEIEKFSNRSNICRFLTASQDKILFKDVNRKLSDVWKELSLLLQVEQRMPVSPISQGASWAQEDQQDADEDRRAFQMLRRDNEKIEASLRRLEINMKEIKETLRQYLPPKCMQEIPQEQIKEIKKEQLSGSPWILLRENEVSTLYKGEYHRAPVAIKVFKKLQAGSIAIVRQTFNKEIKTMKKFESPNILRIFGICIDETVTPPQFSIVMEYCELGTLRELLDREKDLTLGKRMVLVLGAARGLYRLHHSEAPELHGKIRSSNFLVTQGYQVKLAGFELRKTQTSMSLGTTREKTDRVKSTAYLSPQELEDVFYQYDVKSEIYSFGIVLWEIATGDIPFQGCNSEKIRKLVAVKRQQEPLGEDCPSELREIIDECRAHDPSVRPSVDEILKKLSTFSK
Method in brief: as §1

MAP3K6 = target: T7, MAP3K6 (Homo sapiens, UniProt O95382)
T7 construct: endogenous in cells; host or cells: PANC-1 cell lysate
T7 sequence (O95382 whole entry): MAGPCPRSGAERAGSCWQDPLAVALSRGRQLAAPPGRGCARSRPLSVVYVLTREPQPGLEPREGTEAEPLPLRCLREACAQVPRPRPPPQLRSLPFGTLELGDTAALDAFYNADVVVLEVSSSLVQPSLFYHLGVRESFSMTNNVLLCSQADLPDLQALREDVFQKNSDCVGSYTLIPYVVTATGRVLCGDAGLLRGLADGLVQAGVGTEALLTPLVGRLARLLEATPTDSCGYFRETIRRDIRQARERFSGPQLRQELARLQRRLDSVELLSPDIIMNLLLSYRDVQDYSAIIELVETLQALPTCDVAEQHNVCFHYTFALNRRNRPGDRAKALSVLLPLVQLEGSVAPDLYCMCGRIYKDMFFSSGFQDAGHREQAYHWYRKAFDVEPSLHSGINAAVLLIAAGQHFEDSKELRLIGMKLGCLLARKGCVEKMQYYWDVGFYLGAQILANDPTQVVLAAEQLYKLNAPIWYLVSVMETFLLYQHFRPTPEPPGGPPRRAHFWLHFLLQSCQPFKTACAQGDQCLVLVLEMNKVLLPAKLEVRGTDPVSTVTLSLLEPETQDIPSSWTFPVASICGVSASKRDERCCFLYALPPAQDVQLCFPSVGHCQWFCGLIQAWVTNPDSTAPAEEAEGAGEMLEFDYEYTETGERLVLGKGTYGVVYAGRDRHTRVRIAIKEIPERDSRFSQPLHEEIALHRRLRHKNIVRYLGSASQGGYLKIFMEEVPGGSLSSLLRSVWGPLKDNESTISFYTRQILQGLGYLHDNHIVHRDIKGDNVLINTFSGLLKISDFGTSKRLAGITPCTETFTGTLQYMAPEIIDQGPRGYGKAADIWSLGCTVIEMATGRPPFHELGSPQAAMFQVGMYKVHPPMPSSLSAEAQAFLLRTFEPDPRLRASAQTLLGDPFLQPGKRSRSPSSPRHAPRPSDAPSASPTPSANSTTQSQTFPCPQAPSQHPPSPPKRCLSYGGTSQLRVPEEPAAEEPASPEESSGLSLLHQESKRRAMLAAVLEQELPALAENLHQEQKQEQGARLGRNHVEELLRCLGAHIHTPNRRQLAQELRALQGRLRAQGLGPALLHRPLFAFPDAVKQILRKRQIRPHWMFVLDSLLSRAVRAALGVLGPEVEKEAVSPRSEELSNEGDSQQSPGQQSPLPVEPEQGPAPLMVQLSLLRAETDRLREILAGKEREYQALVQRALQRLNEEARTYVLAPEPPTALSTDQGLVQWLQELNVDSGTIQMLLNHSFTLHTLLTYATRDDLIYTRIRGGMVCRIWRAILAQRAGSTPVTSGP
Method in brief: as §1

AMPKa1, AMPKa2 = conditions: 5 µM
Method in brief: as §1

MAP3K15, MAP3K5, MAP3K6 = target: T8, MAP3K15, MAP3K5, MAP3K6 (Homo sapiens, UniProt Q6ZN16); conditions: 5 μM; PANC-1 lysate
T8 construct: endogenous in cells; host or cells: PANC-1 cell lysate
Method in brief: as §1

CaMK1a = target: T9, CaMK1a (Homo sapiens, UniProt Q14012); conditions: Lys1
T9 construct: endogenous in cells; host or cells: PANC-1 cell lysate
Method in brief: as §1

MST2 = target: T10, MST2 (Homo sapiens, UniProt Q13188); conditions: Lys1
T10 construct: endogenous in cells; host or cells: PANC-1
Method in brief: as §1

EphB3 = target: T11, EphB3 (Homo sapiens, UniProt P54753); conditions: ATP Loop
T11 construct: endogenous in cells; host or cells: PANC-1 lysate
T11 sequence (P54753 34-998): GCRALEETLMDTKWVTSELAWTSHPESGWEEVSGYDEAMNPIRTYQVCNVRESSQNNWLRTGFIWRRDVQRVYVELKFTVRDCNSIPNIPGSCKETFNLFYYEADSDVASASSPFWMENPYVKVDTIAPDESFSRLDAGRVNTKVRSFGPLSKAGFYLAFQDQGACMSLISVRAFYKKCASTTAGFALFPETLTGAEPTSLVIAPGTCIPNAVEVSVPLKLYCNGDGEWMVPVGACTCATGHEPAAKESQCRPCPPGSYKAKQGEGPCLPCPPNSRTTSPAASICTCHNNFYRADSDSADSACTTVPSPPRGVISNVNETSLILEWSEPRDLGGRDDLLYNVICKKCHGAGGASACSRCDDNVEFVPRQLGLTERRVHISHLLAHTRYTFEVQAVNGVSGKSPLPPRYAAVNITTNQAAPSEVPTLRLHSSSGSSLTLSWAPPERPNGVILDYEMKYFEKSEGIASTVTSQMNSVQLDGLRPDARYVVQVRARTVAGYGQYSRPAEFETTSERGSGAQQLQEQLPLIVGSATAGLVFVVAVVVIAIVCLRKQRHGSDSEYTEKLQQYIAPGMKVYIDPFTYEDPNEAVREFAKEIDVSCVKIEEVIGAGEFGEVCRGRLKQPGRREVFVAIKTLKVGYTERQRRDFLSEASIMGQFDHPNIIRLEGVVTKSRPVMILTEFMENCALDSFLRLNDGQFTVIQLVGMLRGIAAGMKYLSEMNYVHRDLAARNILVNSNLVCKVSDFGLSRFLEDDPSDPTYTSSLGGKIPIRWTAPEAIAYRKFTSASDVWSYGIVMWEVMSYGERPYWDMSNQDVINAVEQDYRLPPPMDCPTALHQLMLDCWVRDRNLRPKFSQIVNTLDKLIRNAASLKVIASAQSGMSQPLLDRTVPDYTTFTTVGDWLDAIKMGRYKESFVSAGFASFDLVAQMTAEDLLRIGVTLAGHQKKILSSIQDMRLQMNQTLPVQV
Method in brief: as §1

MARK2 = target: T12, MARK2 (Homo sapiens, UniProt Q7KZI7); conditions: Lys1
T12 construct: endogenous in cells; host or cells: PANC-1 cell lysate
Method in brief: as §1

T1 sequence (P19525 whole entry): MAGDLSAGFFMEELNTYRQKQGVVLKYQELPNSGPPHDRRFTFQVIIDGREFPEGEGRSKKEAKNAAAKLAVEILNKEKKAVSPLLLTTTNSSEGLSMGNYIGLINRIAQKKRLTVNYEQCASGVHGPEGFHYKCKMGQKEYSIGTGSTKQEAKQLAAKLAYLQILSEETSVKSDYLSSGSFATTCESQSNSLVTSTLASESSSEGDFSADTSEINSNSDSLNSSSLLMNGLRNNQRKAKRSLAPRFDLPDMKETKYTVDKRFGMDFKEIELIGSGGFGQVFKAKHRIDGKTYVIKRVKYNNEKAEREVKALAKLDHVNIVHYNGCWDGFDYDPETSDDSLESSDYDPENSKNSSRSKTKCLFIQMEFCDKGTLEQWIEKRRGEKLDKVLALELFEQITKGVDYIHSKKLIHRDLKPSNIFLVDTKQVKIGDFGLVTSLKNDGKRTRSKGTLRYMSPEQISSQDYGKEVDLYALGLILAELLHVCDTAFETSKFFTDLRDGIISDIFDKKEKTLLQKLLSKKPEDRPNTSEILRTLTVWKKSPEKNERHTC

`Cn1cc(-c2cnc3ccc(NC(=O)Nc4ccc(F)c(C(F)(F)F)c4)cc3n2)cn1` [51-106, 1-(4-Fluoro-3-(trifluoromethyl)phenyl)-3-(3-(1-methyl-1H-pyrazol-4-yl)quinoxalin-6-yl)urea] was tested, and the inhibition at 5 µM (PKR; ATP Loop, IGDFGLVTSLKNDGKR) was ≤ 0%, the inhibition at 5 µM (PKR; Lys2, DLKPSNIFLVDTK) was 18.7% and the inhibition at 5 µM (NEK9; ATP Loop, LGDYGLAKK) was ≤ 0%. The inhibition at 5 µM (NEK9; Lys1, RTEDDSLVVWKEVDLTR) was 0.6%, the inhibition at 5 µM (NEK9; Lys2, DIKTLNIFLTK) was 13.8% and the inhibition at 5 µM (PKCd; Lys2, DLKLDNVLLDR) was 0.4%. For the same compound, the inhibition at 5 µM (PKCd; Other, KPTMYPEWK) was ≤ 0%, the “% Inhibition” value (KSR1, KSR2) was 8.8% and the “% Inhibition” value (DRAK1, DRAK2) was 4.6%. For the same compound, the inhibition at 5 µM (PKN2) was 3.7%, the inhibition at 5 µM (PAN3; IQKSSNFGYITSCYK) was ≤ 0% and the inhibition at 5 µM (PAN3; VMDPTKILITGK) was 4.4%. For the same compound, the inhibition at 5 µM (MLKL) was ≤ 0%, the inhibition at 5 µM (MAP3K6; 5 µM, Lys2, […]) was ≤ 0% and the “inhibition of MAP3K6 (in words)” value (MAP3K6; 5 μM, PANC-1 lysate) was “did not inhibit”. The “% Inhibition” value (AMPKa1, AMPKa2; Lys1, VAVKILNR) was 7.5%, the “% Inhibition” value (AMPKa1, AMPKa2; Lys2, DLKPENVLLDAHMNAK) was 8.7% and the “inhibition of MAP3K15 (in words)” value (MAP3K15, MAP3K5, MAP3K6) was “did not inhibit”. The inhibition at 5 µM (CaMK1a) was ≤ 0%, the inhibition at 5 µM (MST2) was 0.8% and the inhibition at 5 µM (EphB3) was 1.6%. For the same compound, the inhibition at 5 µM (MARK2) was 5%.
